According to patent publication US6492404B1, “Thiazolylcinnamonitriles and pest controlling agents” (Nippon Soda Co., Ltd., priority 1998, dated 2002):

Test system: Pseudaletia separata Walker
Assay: Effects on Pseudaletia separata Walker (corn leaf immersion, third instar larvae)
Format: in vivo
Settings: wettable powder diluted to 125 ppm, corn leaves immersed 30 seconds, 25° C., 65% RH, assessed 6 days after treatment
Protocol: Effects on Pseudaletia separata Walker
According to the instructions of the wettable powder described in the above Example 2, a wettable powder was diluted with water to make the compound concentration 125 ppm. Corn leaves were immersed in the solution for 30 seconds, air-dried and placed in a Petri dish containing 5 third instar larvae of Pseudaletia separata Walker. The dish was covered with a glass lid and placed in a thermostatic chamber of temperature of 25° C. and relative humidity of 65%. Mortality was assessed 6 days after treatment. Each test was replicated twice.

Q: With `Cc1cc(Cl)ccc1N=CN(C)C` [Chlordimeform] as the molecule, how does the mortality read?
A: 40%
